From ChEMBL document CHEMBL4627328, “Synthesis and in vitro evaluation of antimycobacterial and cytotoxic activity of new α,β-unsaturated amide, oxazoline and oxazole derivatives from l-serine” (Bioorg Med Chem Lett, 2020)
Values after ≈ are worked out from the molar mass of the structure shown.

Each compound was assayed on Mycobacterium tuberculosis (assay: Antimycobacterial activity against multidrug resistant Mycobacterium tuberculosis G122 incubated for 5 days by alamar blue based colorimetric assay). Settings: G122, 120 h.
Format: functional

SMILES	MIC [µM]
COC(=O)[C@H](CO)NC(=O)/C=C/c1ccc(C)cc1	> 380
COC(=O)c1coc(/C=C/c2ccc(C)cc2)n1	25.7 (≈ 6.25 µg/mL)
COC(=O)[C@H](CO)NC(=O)/C=C/c1ccccc1	> 401
Cc1ccc(/C=C/C(=O)O/C(=N/C2CCCCC2)NC2CCCCC2)cc1	> 271
COC(=O)[C@H](CO)NC(=O)/C=C/c1ccc(OC)cc1	> 358
CO[C@H]1/C=C/O[C@@]2(C)Oc3c(C)c(O)c4c(O)c(c(/C=N/N5CCN(C)CC5)c(O)c4c3C2=O)NC(=O)/C(C)=C\C=C\[C@H](C)[C@H](O)[C@@H](C)[C@@H](O)[C@@H](C)[C@H](OC(C)=O)[C@@H]1C [RIFAMPIN]	0.23 (≈ 0.189 µg/mL)
COC(=O)[C@@H]1COC(/C=C/c2ccccc2)=N1	54.1 (≈ 12.5 µg/mL)
COC(=O)[C@@H]1COC(/C=C/c2ccc(OC)cc2)=N1	47.8 (≈ 12.5 µg/mL)
COC(=O)[C@@H]1COC(/C=C/c2ccc(C)cc2)=N1	50.9 (≈ 12.5 µg/mL)
O=C(/C=C/c1ccccc1)O/C(=N/C1CCCCC1)NC1CCCCC1	> 282
COC(=O)[C@H](COC(=O)/C=C/c1ccc(C)cc1)NC(=O)/C=C/c1ccc(C)cc1	> 245
COC(=O)[C@H](CO)NC(=O)/C=C/c1ccc(F)cc1	> 374
COC(=O)[C@H](COC(=O)/C=C/c1ccccc1)NC(=O)/C=C/c1ccccc1	> 264
CC[C@@H](CO)NCCN[C@@H](CC)CO [ETHAMBUTOL]	> 30.5
C[C@H]1COc2c(N3CCN(C)CC3)c(F)cc3c(=O)c(C(=O)O)cn1c23 [LEVOFLOXACIN]	0.54 (≈ 0.195 µg/mL)
COC(=O)c1coc(/C=C/c2ccc(F)cc2)n1	50.5 (≈ 12.5 µg/mL)
COC(=O)c1coc(/C=C/c2ccccc2)n1	54.5 (≈ 12.5 µg/mL)
COC(=O)[C@H](COC(=O)/C=C/c1ccc(F)cc1)NC(=O)/C=C/c1ccc(F)cc1	> 241
COC(=O)[C@H](COC(=O)/C=C/c1ccc(OC)cc1)NC(=O)/C=C/c1ccc(OC)cc1	> 228
COC(=O)c1coc(/C=C/c2ccc(OC)cc2)n1	48.2 (≈ 12.5 µg/mL)
COC(=O)[C@@H]1COC(/C=C/c2ccc(F)cc2)=N1	100 (≈ 25 µg/mL)
O=C(/C=C/c1ccc(F)cc1)O/C(=N/C1CCCCC1)NC1CCCCC1	> 268
